The nature of the series: Pharmacokinetics in brain and plasma after dosing. Format: in vivo, CD-1 mice. Here is the method: KH022 in the present invention and the control described in example 56
The experimental animals are CD-1 mice.
Preparation of test compounds with 30% SBECD in water for intragastric administration. On the first day of the experiment, the animals in the first group are […] with the solution of KH022 or the control with the dosage of 5 mL/kg; before the administration, the animals were weighed, and the administration volume was calculated according to the body weight. Whole blood samples (about 0.03 ml per group) were collected at a specified time by saphenous vein puncture (or other suitable collection locations). Blood samples were immediately processed for plasma by centrifugation at approximately 4° C., 3,200 g for 10 min, quickly placed in dry ice, and kept below −20° C. until LC/MS/MS analysis. At each time point, animals were euthanized using CO2 and then brain tissue was collected, rinsed and dried with physiological saline, and homogenized with 4 times the brain weight (g) volume of 15 mM PBS (pH7.4):MeOH=2:1. After homogenization, samples were transferred to labeled centrifuge tubes and quickly placed in dry ice, stored at or below −20° C. for LC-MS/MS analysis.
The concentrations of the test compound in dose formulation samples was determined by the LC/UV, and the calibration curve contains at least 6 calibration standards, R^2≥0.999. The concentrations of the test compound in biological matrix was determined by the LC/MS/MS method. The retention time of test compounds or internal standards, chromatogram acquisition and chromatogram integration were processed by software Analyst (Applied Biosystems), and data statistics were processed by software Watson LIMS (Thermo Fisher Scientific) or Analyst (Applied Biosystems). The unit of the analyte concentration in the sample is ng/ml, with 3 significant digits reserved, and all values expressed in percentages (such as % deviation and % coefficient of variation, etc.) were kept to one decimal place. […]

The record followed here is patent US12415830B2, “Steroid compound, and use thereof and preparation method therefor” (Chengdu Kanghong Pharmaceutical Co Ltd, priority 2019, dated 2025).

With `C[C@@]1(O)CC[C@@]2(C)[C@@H](CC[C@@H]3[C@@H]2CC[C@]2(C)[C@@H](C(=O)Cn4ncnn4)CCC[C@@H]32)C1` [KH022], the “content in the mouse brain relative to the control” value (2h, same dosage) turned out to be 2.5 times. Where the note is “same dosage”, the “clearance in the mouse brain compared with the control” value is given as “cleared more slowly”. `C[C@@]1(O)CC[C@H]2[C@H](CC[C@@H]3[C@@H]2CC[C@]2(C)[C@@H](C(=O)Cn4cc(C#N)cn4)CC[C@@H]32)C1` [The control, reference compound]: for the setting “mouse brain, 8h”, the “detection in the brain” value is on record as “no detection”.
